From patent US20220274947A1, “NOVEL HETEROARYL-TRIAZOLE COMPOUNDS AS PESTICIDES” (Bayer Aktiengesellschaft, priority 2019, published 2022)

Legend:
Assay type in all cases: in vivo
Ctenocephalides felis = Ctenocephalides felis oral test (CTECFE Oral); conditions: 48 h, read-out: activity (mortality)
In short: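 Percent mortality was recorded 2 days after roughly 20 adult Ctenocephalides felis fed on treated cattle blood. The blood was warmed to 37 °C beneath a parafilm membrane, with the fleas kept at room temperature. Compound was dissolved in DMSO and diluted into the blood to test concentration.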

Rhipicephalus sanguineus = Rhipicephalus sanguineus in-vitro contact test, adult brown dog ticks (RHIPSA Cont); conditions: 48 h, after 48 hours, read-out: activity (efficacy: 100% means all ticks are dead or moribund); for pest or weed control at 1 µg/cm2, 100 g/ha: application rate 1 μg/cm^2 (=100 g/ha); for pest or weed control at 5 µg/cm2, 500 g/ha: application rate 5 μg/cm^2 (=500 g/ha)
In short: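 Mortality of adult R. sanguineus was judged 48 h after contact with acetone-applied residues on glass tube walls. Ticks that stayed immotile or moved without coordination when heated to 45–50 °C (max 5 min) counted as dead or moribund.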

Myzus persicae = Myzus persicae oral test; conditions: 120 h, read-out: activity (mortality)
In short: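 Percent mortality was recorded at day 5, where 0% means no aphids killed. Compound prepared from an acetone concentrate diluted in water and combined with IPL41 medium containing sugar was offered to mixed-stage green peach aphids, which sucked it through a parafilm seal.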

[1] = test system: Aedes aegypti strain MONHEIM; assay: Aedes aegypti test (AEDSAE surface treatment & contact assay); conditions: exposure 30 minutes, 24 hours after contact, read-out: efficacy (mortality); for mortality at 4 mg/m2: surface concentration 4 mg/m^2, glazed tile; for mortality at 20 mg/m2: surface concentration 20 mg/m^2, glazed tile
In short: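 Compound dissolved in acetone (2 mg/ml) with 2000 ppm rapeseed oil methyl ester, pipetted onto glazed tile and dried. Adult mosquitoes exposed on the surface for 30 min; percent mortality scored 24 h after contact.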

[2] = test system: Culex quinquefasciatus strain P00; assay: Culex quinquefasciatus test (CULXFA surface treatment & contact assay); conditions: exposure 30 minutes, 24 hours after contact, read-out: efficacy (mortality); for mortality at 4 mg/m2: surface concentration 4 mg/m^2, glazed tile; for mortality at 20 mg/m2: surface concentration 20 mg/m^2, glazed tile
In short: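 Test compound in acetone (2 mg/ml) with 2000 ppm RME pipetted onto glazed tile; after acetone evaporation, adult strain P00 mosquitoes exposed to dried surface for 30 min. Mortality (%) scored 24 h after contact; 100% = all dead, 0% = none dead.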

[3] = test system: Musca domestica strain WHO—N; assay: Musca domestica test (MUSCDO surface treatment & contact assay); conditions: exposure 30 minutes, 24 hours after contact, read-out: efficacy (mortality); for mortality at 4 mg/m2: surface concentration 4 mg/m^2, glazed tile; for mortality at 20 mg/m2: surface concentration 20 mg/m^2, glazed tile
In short: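 Compound dissolved in acetone (2 mg/ml) with 2000 ppm rapeseed oil methyl ester and pipetted onto glazed tile; after acetone evaporation, adult flies exposed to dried surface for 30 minutes. Mortality (%) scored 24 hours after contact.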

[4] = test system: Anopheles funestus strain FUMOZ-R; assay: Anopheles funestus test (ANPHFU surface treatment & contact assay); conditions: exposure 30 minutes, 24 hours after contact, read-out: efficacy (mortality); for mortality at 4 mg/m2: surface concentration 4 mg/m^2, glazed tile; for mortality at 20 mg/m2: surface concentration 20 mg/m^2, glazed tile
In short: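 Adult FUMOZ-R mosquitoes were exposed 30 min to glazed tiles treated with compound in acetone plus 2000 ppm rapeseed oil methyl ester, after solvent evaporation. Percent mortality was scored 24 h after contact.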

Rhipicephalus microplus = assay: Rhipicephalus (Boophilus) microplus dip test (BOOPMI Dip); conditions: 168 h, application rate 100 ppm, engorged adult female ticks, after 7 days, read-out: activity (efficacy: 100% means all eggs are infertile)
Procedure: Rhipicephalus (Boophilus) Microplus—Dip Test (BOOPMI Dip)
Test Animal: cattle ticks (Rhipicephalus microplus) strain parkhurst, SP-resistant Solvent: dimethyl sulfoxide
To produce a suitable preparation of active compound, 10 mg of active compound are dissolved in 0.5 mL solvent, and the concentrate is diluted with water to the desired concentration.
This compound solution is pipetted into tubes. 8-10 engorged, adult, female cattle ticks (Rhipicephalus microplus) are placed in perforated tubes. These tubes are immersed in the aqueous compound solution until the ticks are completely moistened. After the liquid has drained off, the ticks are transferred to a filter paper in a plastic tray and stored in a climate chamber.
After 7 days egg deposition of fertile eggs is monitored. Eggs where fertility is not visible are stored in a climate chamber till hatching after about 42 days. An efficacy of 100% means all eggs are infertile; 0% means all eggs are fertile.

## C[C@H](NC(=O)c1cc(Cl)cc(OC(F)(F)F)c1)c1ncnn1-c1ncc(OC(F)F)cn1 [II-30]
Ctenocephalides felis
  mortality at 100 ppm: 100%
Rhipicephalus sanguineus
  pest or weed control at 1 µg/cm2, 100 g/ha: 100%
  pest or weed control at 5 µg/cm2, 500 g/ha: 100%
Myzus persicae
  mortality at 4 ppm: 100%
[1]
  mortality at 4 mg/m2: 80 to 100%
  mortality at 20 mg/m2: 80 to 100%
[2]
  mortality at 4 mg/m2: 80 to 100%
[3]
  mortality at 4 mg/m2: 80 to 100%
  mortality at 20 mg/m2: 80 to 100%

## CCN(C(=O)c1ccc(-n2ncnc2[C@H](C)NC(=O)c2cc(Cl)cc(C(F)(F)F)c2)nc1)C1CC1 [II-31]
Rhipicephalus sanguineus
  pest or weed control at 1 µg/cm2, 100 g/ha: 100%
  pest or weed control at 5 µg/cm2, 500 g/ha: 100%
Myzus persicae
  mortality at 4 ppm: 100%
[1]
  mortality at 20 mg/m2: 80 to 100%
[2]
  mortality at 20 mg/m2: 80 to 100%
[4]
  mortality at 4 mg/m2: 80 to 100%
  mortality at 20 mg/m2: 80 to 100%
[3]
  mortality at 20 mg/m2: 80 to 100%

## CC(=O)Nc1ccnc(-n2ncnc2[C@H](C)NC(=O)c2cc(Cl)cc(C(F)(F)F)c2)c1 [II-36]
[1]
  mortality at 4 mg/m2: 80 to 100%
  mortality at 20 mg/m2: 80 to 100%
[2]
  mortality at 4 mg/m2: 80 to 100%
  mortality at 20 mg/m2: 80 to 100%
[4]
  mortality at 4 mg/m2: 80 to 100%
  mortality at 20 mg/m2: 80 to 100%
[3]
  mortality at 20 mg/m2: 80 to 100%

## C[C@H](NC(=O)c1cc(C(F)(F)F)cc(C(F)(F)F)c1)c1ncnn1-c1ncc(Cl)s1 [II-40]
Rhipicephalus sanguineus
  pest or weed control at 1 µg/cm2, 100 g/ha: 80%
[1]
  mortality at 4 mg/m2: 80 to 100%
  mortality at 20 mg/m2: 80 to 100%
[2]
  mortality at 4 mg/m2: 80 to 100%
  mortality at 20 mg/m2: 80 to 100%
[4]
  mortality at 20 mg/m2: 80 to 100%
[3]
  mortality at 20 mg/m2: 80 to 100%

## Cc1nc([C@H](C)NC(=O)c2cc(Br)cc(Br)c2)n(-c2ccc(C#N)cn2)n1 [II-52]
Ctenocephalides felis
  mortality at 100 ppm: 100%
Rhipicephalus sanguineus
  pest or weed control at 1 µg/cm2, 100 g/ha: 100%
  pest or weed control at 5 µg/cm2, 500 g/ha: 100%
Myzus persicae
  mortality at 0.8 ppm: 100%
  mortality at 4 ppm: 100%
[1]
  mortality at 4 mg/m2: 80 to 100%
  mortality at 20 mg/m2: 80 to 100%
[2]
  mortality at 4 mg/m2: 80 to 100%
[4]
  mortality at 4 mg/m2: 80 to 100%
  mortality at 20 mg/m2: 80 to 100%
[3]
  mortality at 4 mg/m2: 80 to 100%
  mortality at 20 mg/m2: 80 to 100%

## Cc1nc([C@H](C)NC(=O)c2cc(C#N)cc(C(F)(F)F)c2)n(-c2ccc(C#N)cn2)n1 [II-53]
Rhipicephalus microplus
  pest or weed control at 100 ppm: 100%
Ctenocephalides felis
  mortality at 100 ppm: 100%
Rhipicephalus sanguineus
  pest or weed control at 1 µg/cm2, 100 g/ha: 80%
  pest or weed control at 5 µg/cm2, 500 g/ha: 100%
Myzus persicae
  mortality at 0.8 ppm: 100%
  mortality at 4 ppm: 100%
[1]
  mortality at 4 mg/m2: 80 to 100%
  mortality at 20 mg/m2: 80 to 100%
[3]
  mortality at 4 mg/m2: 80 to 100%
  mortality at 20 mg/m2: 80 to 100%

## Cc1nc([C@H](C)NC(=O)c2cc(Br)cc(C#N)c2)n(-c2ccc(C#N)cn2)n1 [II-54]
Rhipicephalus microplus
  pest or weed control at 100 ppm: 80%
Ctenocephalides felis
  mortality at 100 ppm: 90%
Rhipicephalus sanguineus
  pest or weed control at 1 µg/cm2, 100 g/ha: 100%
  pest or weed control at 5 µg/cm2, 500 g/ha: 100%
Myzus persicae
  mortality at 0.8 ppm: 100%
  mortality at 4 ppm: 100%
[1]
  mortality at 4 mg/m2: 80 to 100%
  mortality at 20 mg/m2: 80 to 100%
[3]
  mortality at 4 mg/m2: 80 to 100%
  mortality at 20 mg/m2: 80 to 100%

## Cc1nc([C@H](C)NC(=O)c2cc(Cl)nc(C(F)(F)F)c2)n(-c2ccc(C#N)cn2)n1 [II-62]
Ctenocephalides felis
  mortality at 100 ppm: 100%
Rhipicephalus sanguineus
  pest or weed control at 1 µg/cm2, 100 g/ha: 100%
  pest or weed control at 5 µg/cm2, 500 g/ha: 100%
Myzus persicae
  mortality at 4 ppm: 100%
[1]
  mortality at 4 mg/m2: 80 to 100%
  mortality at 20 mg/m2: 80 to 100%
[2]
  mortality at 20 mg/m2: 80 to 100%
[3]
  mortality at 4 mg/m2: 80 to 100%
  mortality at 20 mg/m2: 80 to 100%

## C[C@H](NC(=O)c1cc(C(F)(F)F)cc(C(F)(F)F)c1)c1ncnn1-c1ccc(C(=O)N(C)CC2CC2)cn1 [II-73]
Rhipicephalus microplus
  pest or weed control at 100 ppm: 100%
Rhipicephalus sanguineus
  pest or weed control at 1 µg/cm2, 100 g/ha: 100%
  pest or weed control at 5 µg/cm2, 500 g/ha: 100%
Myzus persicae
  mortality at 4 ppm: 100%

## Cc1nc([C@H](C)NC(=O)c2cc(C(F)(F)F)cc(C(F)(F)F)c2)n(-c2ccc(C(=O)N(C)C3CC3)cn2)n1 [II-96]
Rhipicephalus microplus
  pest or weed control at 100 ppm: 100%
Ctenocephalides felis
  mortality at 100 ppm: 100%
Rhipicephalus sanguineus
  pest or weed control at 1 µg/cm2, 100 g/ha: 100%
  pest or weed control at 5 µg/cm2, 500 g/ha: 100%
Myzus persicae
  mortality at 4 ppm: 100%
[1]
  mortality at 4 mg/m2: 80 to 100%
  mortality at 20 mg/m2: 80 to 100%
[3]
  mortality at 4 mg/m2: 80 to 100%
  mortality at 20 mg/m2: 80 to 100%
